Data taken from ChEMBL document CHEMBL4270552, “4-(Phenoxy) and 4-(benzyloxy)benzamides as potent and selective inhibitors of mono-ADP-ribosyltransferase PARP10/ARTD10” (Eur J Med Chem, 2018).

Experiments:
[1] = molecular target: T1, Protein mono-ADP-ribosyltransferase PARP10 (Homo sapiens) (UniProt Q53GL7)
T1 sequence (whole entry): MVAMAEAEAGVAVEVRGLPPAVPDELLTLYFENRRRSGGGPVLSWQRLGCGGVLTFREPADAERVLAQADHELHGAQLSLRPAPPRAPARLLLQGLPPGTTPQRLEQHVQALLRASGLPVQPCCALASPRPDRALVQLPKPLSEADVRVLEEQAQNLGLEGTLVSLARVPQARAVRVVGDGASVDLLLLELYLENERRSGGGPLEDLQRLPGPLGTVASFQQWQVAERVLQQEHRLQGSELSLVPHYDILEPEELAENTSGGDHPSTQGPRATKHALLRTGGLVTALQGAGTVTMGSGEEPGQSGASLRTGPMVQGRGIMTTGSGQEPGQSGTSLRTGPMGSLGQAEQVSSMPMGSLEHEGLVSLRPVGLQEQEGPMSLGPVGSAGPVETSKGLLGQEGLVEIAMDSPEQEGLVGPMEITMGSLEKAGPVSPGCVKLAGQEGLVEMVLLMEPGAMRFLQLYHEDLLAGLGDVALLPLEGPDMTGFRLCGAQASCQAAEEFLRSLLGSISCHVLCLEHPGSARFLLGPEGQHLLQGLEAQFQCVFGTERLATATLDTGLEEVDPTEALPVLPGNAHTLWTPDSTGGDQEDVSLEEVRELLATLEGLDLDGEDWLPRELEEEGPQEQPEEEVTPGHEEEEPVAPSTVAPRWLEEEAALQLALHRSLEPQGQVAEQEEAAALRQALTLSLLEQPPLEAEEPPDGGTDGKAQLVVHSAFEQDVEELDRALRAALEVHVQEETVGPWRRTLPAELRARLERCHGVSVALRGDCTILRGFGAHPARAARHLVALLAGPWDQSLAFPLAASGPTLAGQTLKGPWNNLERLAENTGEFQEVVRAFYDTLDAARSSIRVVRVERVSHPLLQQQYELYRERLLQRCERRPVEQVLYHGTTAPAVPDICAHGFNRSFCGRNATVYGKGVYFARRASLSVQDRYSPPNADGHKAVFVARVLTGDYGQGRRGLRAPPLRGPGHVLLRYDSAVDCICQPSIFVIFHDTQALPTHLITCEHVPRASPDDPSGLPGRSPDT
Description: Stabilization of C-terminal His-tagged human ARTD10 (809 to 1017 residues) expressed in Escherichia coli Rosetta2 (DE3) assessed as change in melting temperature at 100 uM by SYPRO Orange-dye based differential scanning fluorimetric method

[2] = molecular target: Poly [ADP-ribose] polymerase 2 (Homo sapiens, UniProt Q9UGN5); assay: Inhibition of N-terminal His-tagged thioredoxin-fused human ARTD2 (1 to 583 residues) expressed in Escherichia coli Rosetta2 (DE3) using activated DNA as substrate after 1.5 hrs in presence of NAD+
[3] = molecular target: Protein mono-ADP-ribosyltransferase PARP4 (Homo sapiens, UniProt Q9UKK3); assay: Inhibition of N-terminal His-tagged human ARTD4 (250 to 565 residues) expressed in Escherichia coli Rosetta2 (DE3) using TCEP as substrate after 2.5 hrs in presence of NAD+
[4] = molecular target: T2, Protein mono-ADP-ribosyltransferase PARP12 (Homo sapiens, UniProt Q9H0J9); assay: Inhibition of N-terminal His-tagged thioredoxin-fused human ARTD12 (469 to 701 residues) expressed in Escherichia coli Rosetta2 (DE3) after 20 hrs in presence of NAD+
T2 sequence (Q9H0J9 whole entry): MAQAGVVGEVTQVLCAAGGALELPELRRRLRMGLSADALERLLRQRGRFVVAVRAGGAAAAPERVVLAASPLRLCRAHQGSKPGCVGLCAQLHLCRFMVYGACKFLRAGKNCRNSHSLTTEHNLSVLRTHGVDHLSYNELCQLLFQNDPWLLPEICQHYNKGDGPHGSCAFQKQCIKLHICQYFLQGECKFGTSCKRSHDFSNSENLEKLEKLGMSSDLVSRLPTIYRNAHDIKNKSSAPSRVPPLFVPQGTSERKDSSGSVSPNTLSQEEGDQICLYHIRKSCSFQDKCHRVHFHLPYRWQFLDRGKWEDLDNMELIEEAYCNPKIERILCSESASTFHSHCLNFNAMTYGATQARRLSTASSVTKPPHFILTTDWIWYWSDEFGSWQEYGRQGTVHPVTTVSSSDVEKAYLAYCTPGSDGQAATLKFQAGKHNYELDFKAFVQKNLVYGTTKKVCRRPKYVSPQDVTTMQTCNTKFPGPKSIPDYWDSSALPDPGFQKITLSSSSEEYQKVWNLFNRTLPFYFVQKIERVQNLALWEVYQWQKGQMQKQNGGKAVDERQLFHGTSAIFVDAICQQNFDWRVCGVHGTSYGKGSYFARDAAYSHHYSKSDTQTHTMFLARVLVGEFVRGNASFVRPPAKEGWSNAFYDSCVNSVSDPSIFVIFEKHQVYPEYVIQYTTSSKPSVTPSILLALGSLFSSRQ

[5] = molecular target: T3, Protein mono-ADP-ribosyltransferase PARP15 (Homo sapiens, UniProt Q460N3); assay: Inhibition of N-terminal His-tagged human ARTD7 (482 to 678 residues) expressed in Escherichia coli Rosetta2 (DE3) using SRPK2 as substrate after 3 hrs in presence of NAD+
T3 sequence (Q460N3 whole entry): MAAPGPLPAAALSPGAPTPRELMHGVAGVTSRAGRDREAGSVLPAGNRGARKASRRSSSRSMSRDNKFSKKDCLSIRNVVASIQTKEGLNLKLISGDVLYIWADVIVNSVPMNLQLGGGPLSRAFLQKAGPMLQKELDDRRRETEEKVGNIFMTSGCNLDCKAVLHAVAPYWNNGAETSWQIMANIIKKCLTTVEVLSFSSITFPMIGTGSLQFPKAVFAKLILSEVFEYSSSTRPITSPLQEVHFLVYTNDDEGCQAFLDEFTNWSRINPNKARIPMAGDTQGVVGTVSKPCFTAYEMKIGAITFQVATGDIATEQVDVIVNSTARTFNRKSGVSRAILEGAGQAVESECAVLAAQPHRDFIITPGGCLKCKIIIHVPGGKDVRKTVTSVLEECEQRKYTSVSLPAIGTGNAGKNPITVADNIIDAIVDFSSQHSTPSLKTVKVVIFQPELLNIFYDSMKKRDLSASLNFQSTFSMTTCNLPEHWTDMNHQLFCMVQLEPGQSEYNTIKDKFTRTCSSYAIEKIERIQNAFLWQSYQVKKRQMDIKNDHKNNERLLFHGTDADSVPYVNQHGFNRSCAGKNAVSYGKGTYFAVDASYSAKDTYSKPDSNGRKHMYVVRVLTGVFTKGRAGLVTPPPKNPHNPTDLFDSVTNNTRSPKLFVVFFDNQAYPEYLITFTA

[6] = molecular target: Zinc finger CCCH-type antiviral protein 1 (Homo sapiens) (UniProt Q7Z2W4)
Zinc finger CCCH-type antiviral protein 1 (Homo sapiens), sequence (Q7Z2W4 whole entry): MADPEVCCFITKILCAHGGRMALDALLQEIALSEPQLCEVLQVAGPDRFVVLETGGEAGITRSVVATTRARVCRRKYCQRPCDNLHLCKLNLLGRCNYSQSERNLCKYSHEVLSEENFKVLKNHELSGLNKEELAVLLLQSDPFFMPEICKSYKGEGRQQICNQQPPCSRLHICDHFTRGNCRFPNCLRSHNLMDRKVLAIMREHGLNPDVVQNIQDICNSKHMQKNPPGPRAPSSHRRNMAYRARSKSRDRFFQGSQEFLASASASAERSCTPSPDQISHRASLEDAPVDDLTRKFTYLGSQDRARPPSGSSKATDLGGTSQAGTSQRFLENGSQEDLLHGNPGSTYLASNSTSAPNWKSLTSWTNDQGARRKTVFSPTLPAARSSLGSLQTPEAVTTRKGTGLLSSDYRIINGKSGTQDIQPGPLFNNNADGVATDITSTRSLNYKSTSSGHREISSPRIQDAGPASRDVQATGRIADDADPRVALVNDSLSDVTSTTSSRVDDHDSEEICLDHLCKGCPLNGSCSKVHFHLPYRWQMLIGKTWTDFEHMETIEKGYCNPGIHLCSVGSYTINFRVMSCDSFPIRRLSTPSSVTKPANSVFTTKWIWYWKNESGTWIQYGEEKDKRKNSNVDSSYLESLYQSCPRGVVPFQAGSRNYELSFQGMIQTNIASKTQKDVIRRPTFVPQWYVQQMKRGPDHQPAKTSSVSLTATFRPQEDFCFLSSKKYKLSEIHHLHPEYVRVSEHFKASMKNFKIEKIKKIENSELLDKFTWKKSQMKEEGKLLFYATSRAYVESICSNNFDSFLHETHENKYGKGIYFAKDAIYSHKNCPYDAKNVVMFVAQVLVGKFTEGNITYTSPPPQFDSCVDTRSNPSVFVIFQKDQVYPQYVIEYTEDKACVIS
Description: Stabilization of human ARTD13 expressed in Escherichia coli assessed as change in melting temperature at 100 uM by SYPRO Orange-dye based differential scanning fluorimetric method

Poly [ADP-ribose] polymerase 2, sequence (Q9UGN5 whole entry, the tested form may be a part): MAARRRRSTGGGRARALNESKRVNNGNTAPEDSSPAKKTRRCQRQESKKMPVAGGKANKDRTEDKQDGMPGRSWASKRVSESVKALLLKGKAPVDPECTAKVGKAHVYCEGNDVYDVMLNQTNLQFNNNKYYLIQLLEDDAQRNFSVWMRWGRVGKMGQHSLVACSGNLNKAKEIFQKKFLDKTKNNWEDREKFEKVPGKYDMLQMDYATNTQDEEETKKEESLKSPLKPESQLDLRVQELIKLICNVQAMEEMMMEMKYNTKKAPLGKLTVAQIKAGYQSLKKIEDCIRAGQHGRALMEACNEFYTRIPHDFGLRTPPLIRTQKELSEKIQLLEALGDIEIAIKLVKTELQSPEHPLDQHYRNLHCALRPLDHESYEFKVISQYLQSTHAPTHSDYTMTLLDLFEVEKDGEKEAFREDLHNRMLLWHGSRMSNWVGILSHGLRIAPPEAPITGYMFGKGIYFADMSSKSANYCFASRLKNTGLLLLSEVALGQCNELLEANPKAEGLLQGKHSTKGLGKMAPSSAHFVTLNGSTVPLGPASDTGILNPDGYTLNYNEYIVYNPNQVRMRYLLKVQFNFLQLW
Protein mono-ADP-ribosyltransferase PARP4, sequence (Q9UKK3 whole entry, the tested form may be a part): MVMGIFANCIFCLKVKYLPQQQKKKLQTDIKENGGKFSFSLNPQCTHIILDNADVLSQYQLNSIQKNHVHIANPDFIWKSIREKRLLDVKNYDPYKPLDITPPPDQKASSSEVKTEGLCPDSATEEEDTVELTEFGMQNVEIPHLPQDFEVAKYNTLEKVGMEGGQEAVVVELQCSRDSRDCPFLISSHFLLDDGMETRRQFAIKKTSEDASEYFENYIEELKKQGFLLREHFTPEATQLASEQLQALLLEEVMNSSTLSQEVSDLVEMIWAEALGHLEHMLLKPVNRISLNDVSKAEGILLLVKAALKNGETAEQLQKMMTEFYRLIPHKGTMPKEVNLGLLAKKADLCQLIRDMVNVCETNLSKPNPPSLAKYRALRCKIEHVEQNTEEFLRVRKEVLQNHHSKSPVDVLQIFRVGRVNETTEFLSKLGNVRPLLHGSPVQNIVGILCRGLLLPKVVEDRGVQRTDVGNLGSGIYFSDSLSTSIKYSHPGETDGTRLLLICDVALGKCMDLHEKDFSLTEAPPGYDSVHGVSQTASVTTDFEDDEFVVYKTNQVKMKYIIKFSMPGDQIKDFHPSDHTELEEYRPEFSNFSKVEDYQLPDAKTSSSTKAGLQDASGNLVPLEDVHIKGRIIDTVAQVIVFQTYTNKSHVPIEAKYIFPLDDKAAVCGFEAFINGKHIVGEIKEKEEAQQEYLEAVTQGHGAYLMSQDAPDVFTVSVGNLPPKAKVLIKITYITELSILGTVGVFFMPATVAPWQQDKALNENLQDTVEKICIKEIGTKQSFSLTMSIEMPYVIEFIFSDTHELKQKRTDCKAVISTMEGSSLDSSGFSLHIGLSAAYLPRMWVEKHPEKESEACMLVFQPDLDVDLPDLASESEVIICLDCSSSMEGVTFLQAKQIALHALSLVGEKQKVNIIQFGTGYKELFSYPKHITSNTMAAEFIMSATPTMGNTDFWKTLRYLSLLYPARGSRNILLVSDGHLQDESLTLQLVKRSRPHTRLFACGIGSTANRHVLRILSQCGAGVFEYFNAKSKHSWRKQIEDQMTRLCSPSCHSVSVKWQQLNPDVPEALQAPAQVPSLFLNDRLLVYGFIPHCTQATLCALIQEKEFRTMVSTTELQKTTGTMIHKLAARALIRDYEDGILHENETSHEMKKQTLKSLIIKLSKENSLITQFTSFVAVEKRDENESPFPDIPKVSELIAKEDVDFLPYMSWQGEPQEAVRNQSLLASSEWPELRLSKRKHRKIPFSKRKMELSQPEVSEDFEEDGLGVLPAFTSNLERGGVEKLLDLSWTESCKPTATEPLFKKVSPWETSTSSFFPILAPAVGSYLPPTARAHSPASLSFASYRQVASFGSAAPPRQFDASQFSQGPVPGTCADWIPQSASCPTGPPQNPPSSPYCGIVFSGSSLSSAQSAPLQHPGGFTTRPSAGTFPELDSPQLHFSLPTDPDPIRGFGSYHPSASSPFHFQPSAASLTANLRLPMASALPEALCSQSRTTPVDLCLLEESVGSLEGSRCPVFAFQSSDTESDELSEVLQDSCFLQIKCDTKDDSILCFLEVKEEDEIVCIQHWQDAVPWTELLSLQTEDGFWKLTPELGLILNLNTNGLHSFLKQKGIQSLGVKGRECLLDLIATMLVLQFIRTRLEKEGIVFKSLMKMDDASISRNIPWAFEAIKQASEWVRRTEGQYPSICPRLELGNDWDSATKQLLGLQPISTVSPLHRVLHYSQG

SMILES | ΔTm [1] [°C] | IC50 [2] [µM] | IC50 [3] [µM] | IC50 [4] [µM] | IC50 [5] [µM] | ΔTm [6] [°C]
COc1ccc(C(N)=O)cc1 | 2.76 | 77 | 65 | > 10 | > 10 | 0.44
NC(=O)c1ccc(Oc2ccc(C(=O)O)cc2)cc1 | 5.21 | > 100 | > 100 | > 10 | 2.6 | 0.72
NC(=O)c1ccc(OCc2ccccc2F)cc1 | 4.2 | > 100 | > 100 | > 10 | 3.3 | 0.37
NC(=O)c1ccc(Oc2ccc(C=O)cc2)cc1 | 3.6 | > 100 | > 100 | > 10 | > 10 | 0.49
